The target in the experiment is T1, Arylsulfatase (EC 3.1.6.1) (Klebsiella aerogenes, UniProt P20713).
T1 construct: purchased Sigma S-1629
T1 sequence (P20713 21-464): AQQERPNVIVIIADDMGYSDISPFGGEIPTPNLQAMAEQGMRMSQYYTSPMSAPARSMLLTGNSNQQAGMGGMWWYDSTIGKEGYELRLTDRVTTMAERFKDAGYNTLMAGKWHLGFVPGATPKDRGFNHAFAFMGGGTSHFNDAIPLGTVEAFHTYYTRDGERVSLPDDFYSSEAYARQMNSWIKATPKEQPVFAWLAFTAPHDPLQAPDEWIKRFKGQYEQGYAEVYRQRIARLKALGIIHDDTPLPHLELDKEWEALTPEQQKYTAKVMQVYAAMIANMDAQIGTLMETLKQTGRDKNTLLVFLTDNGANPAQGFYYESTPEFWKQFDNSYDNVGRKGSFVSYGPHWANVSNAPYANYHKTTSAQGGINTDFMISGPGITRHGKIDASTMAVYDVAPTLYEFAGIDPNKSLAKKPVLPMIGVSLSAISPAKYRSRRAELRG
As to the kind of experiment: Arylsulfatase enzyme test (Sigma sulfatase enzyme assay S-1629; p-nitrophenol formation from pNPS, 420 nm). The experiment is classed as biochemical. The note with it: pH 7,1, 37°C, 8 mM pNPS. The text has this:
Überprüfung der inhibitorischen Wirkung der Steroidsulfatase-Inhibitoren (in vitro)
Da die Sulfatase des Haarfollikels nicht zur Verfügung stand, diente eine handelsübliche Arylsulfatase (EC 3.1.6.1) aus Aerobacter aerogenes als Modellenzym, um die Hemmwirkung der erfindungsgemäß verwendeten Inhibitoren zu testen. Die Tests wurden mit dem Sulfatase-Enzymassay Product No. S-1629 von Sigma gemäß den Angaben im Sigma Quality Control Test Procedure-Datenblatt durchgeführt. Als Referenz-Inhibitoren dienten Ascorbinsäure und ATP.
Zur Auswertung wurde die Arylsulfatase-katalysierte Bildung von p-Nitrophenol aus dem Substrat p-Nitrophenylsulfat (pNPS) spektrophotometrisch (λ = 420 nm) verfolgt. Die Reaktionslösungen von 1000 µl, die auf eine Reaktionstemperatur von 37°C temperiert wurden, enthielten 187 mM Tris/HCl (pH 7,1), 8 mM pNPS und eine Startkonzentration von 0,05 U/ml Arylsulfatase. Die Einheit U der Enzymaktivität wurde so definiert, dass 1 U Sulfatase 1,0 µmol pNPS pro Minute bei pH 7,1 und 37°C hydrolysiert. Die Testdurchführung ist auch offenbart bei H.R. Fowler und D. H. Rammler, Biochemistry 3, 230, 1964. Die Reaktion wurde durch Zugabe des Enzyms gestartet und der Anstieg der Absorption bei λ = 420 nm über 5 Minuten verfolgt. Der lineare Anstieg der Absorption (A) pro Zeiteinheit (t) ist hierbei ein Maß für die Aktivität des Enzyms (ΔA/Δt). Die Aktivität des Enzyms in Abwesenheit eines Inhibitors, (ΔA1/Δt1 ), wurde als Referenz gleich 100% gesetzt. Unter analogen Bedingungen wurden die Aktivitäten in Gegenwart eines Inhibitors (ΔA2/Δt2) bestimmt. Die Hemmwirkung des Inhibitors bzw. die Minderung der Enzymaktivität wurde dann berechnet gemäß der Formel 100% - (ΔA2/Δt2 )/( ΔA1/Δt1 )%.

Turning to “Aluminiumchlorohydrat [Aluminiumchlorohydrat (ACH)]”, the Hemmwirkung entry (ACH-Lösung Locron® L 0,01 % (v/v)) is “Keine Hemmung meßbar”, the Hemmwirkung (ACH-Lösung Locron® L 0,1 % (v/v)) is given as 6%, the Hemmwirkung (ACH-Lösung Locron® L 0,5 % (v/v)) was 27% and the Hemmwirkung (ACH-Lösung Locron® L 1 % (v/v)) is given as 52%.

Values taken from EP1430933A2, “Cosmetic and pharmaceutical compositions comprising steroid sulfatase inhibitors and their use for the reduction of hair loss” (Henkel Kommanditgesellschaft auf Aktien, priority 2002, dated 2004).
